ChEMBL document CHEMBL3046147, “Synthesis and Herbicidal Activity of 1-Arylalkyl-3-pyrrolin-2-one Derivatives” (J Pestic Sci, 2000)

Assays:
Echinochloa oryzicola [1] = experiment: Pre-emergence herbicide activity against Echinochloa oryzicola under greenhouse condition measured after 14 to 20 days; assay type: functional
Echinochloa oryzicola [2] = experiment: Herbicide activity against Echinochloa oryzicola under greenhouse condition compound treated at 2 leaf-stage measured after 14 to 20 days; assay type: functional
Oryza sativa [3] = experiment: Phytotoxicity against two-leaf stage Oryza sativa cv. Nihonbare (rice) planted 1 cm depth measured after […]; assay type: organism-based; conditions: in vivo
[4] = system: Schoenoplectiella juncoides; experiment: Herbicide activity against Schoenoplectiella juncoides under greenhouse condition compound treated at emergence-stage measured after 14 to 20 days; assay type: functional
Oryza sativa [5] = experiment: Phytotoxicity against two-leaf stage Oryza sativa cv. Nihonbare (rice) planted 3 cm depth measured after […]; assay type: organism-based; conditions: in vivo
Sagittaria pygmaea = experiment: Herbicide activity against Sagittaria pygmaea under greenhouse condition compound treated at 0.5 leaf-stage measured after 14 to 20 days; assay type: functional

CC1=C(c2cccc(F)c2)C(=O)N(C(C)(C)c2nc3ccccc3s2)C1 showed an MED (Echinochloa oryzicola [1]) of 5 g/acre, an MED (Echinochloa oryzicola [2]) of 5 g/acre and an MTD (Oryza sativa [3]) of 5 g/acre. It also gave an MED [4] of 40 g/acre, an MTD (Oryza sativa [5]) of 20 g/acre and an MED (Sagittaria pygmaea) of 40 g/acre.
In the case of CC1=C(c2ccccc2)C(=O)N(C(C)(C)c2nc3ccc(C)cc3s2)C1, the MED (Echinochloa oryzicola [1]) is reported as 10 g/acre, the MED (Echinochloa oryzicola [2]) is reported as under 5 g/acre and the MTD (Oryza sativa [3]) is reported as 5 g/acre. It also gave an MED [4] of 80 g/acre, an MTD (Oryza sativa [5]) of 20 g/acre and an MED (Sagittaria pygmaea) of 20 g/acre.
CC1=C(Oc2ccc(Cl)cc2)C(=O)N(C(C)(C)c2nc3ccccc3s2)C1 was tested, and the MED (Echinochloa oryzicola [1]) was 80 g/acre, the MED (Echinochloa oryzicola [2]) was under 5 g/acre and the MTD (Oryza sativa [3]) was 40 g/acre. For the same compound, the MED [4] was 160 g/acre, the MTD (Oryza sativa [5]) was 40 g/acre and the MED (Sagittaria pygmaea) was 160 g/acre.
CC1=C(c2ccc(Cl)cc2)C(=O)N(C(C)(C)c2nc3ccccc3s2)C1 gave an MED (Echinochloa oryzicola [1]) of 80 g/acre, an MED (Echinochloa oryzicola [2]) of under 5 g/acre and an MTD (Oryza sativa [3]) of 20 g/acre. It also gave an MED [4] of 160 g/acre, an MTD (Oryza sativa [5]) of 40 g/acre and an MED (Sagittaria pygmaea) of 160 g/acre.
CC1=C(c2ccccc2)C(=O)N(C(C)(C)c2nc3cccc(Cl)c3s2)C1 gave an MED (Echinochloa oryzicola [1]) of 0.156 g/acre, an MED (Echinochloa oryzicola [2]) of under 5 g/acre and an MTD (Oryza sativa [3]) of 10 g/acre. It also gave an MED [4] of 40 g/acre, an MTD (Oryza sativa [5]) of 20 g/acre and an MED (Sagittaria pygmaea) of 80 g/acre.
Work on CC1=C(c2ccccc2)C(=O)N(C(C)(C)c2ncc(-c3ccc(Cl)cc3)s2)C1 yielded an MED (Echinochloa oryzicola [1]) of 40 g/acre, an MED (Echinochloa oryzicola [2]) of under 5 g/acre and an MTD (Oryza sativa [3]) of 80 g/acre. It also gave an MED [4] of 160 g/acre, an MTD (Oryza sativa [5]) of 80 g/acre and an MED (Sagittaria pygmaea) of 160 g/acre.
CC(C)(c1nc2ccccc2s1)N1CC=C(c2ccccc2)C1=O gave an MED (Echinochloa oryzicola [1]) of 0.625 g/acre, an MED (Echinochloa oryzicola [2]) of 5 g/acre and an MTD (Oryza sativa [3]) of 2.5 g/acre. For the same compound, the MED [4] was 5 g/acre, the MTD (Oryza sativa [5]) was under 20 g/acre and the MED (Sagittaria pygmaea) was 10 g/acre.
In the case of CC1=C(c2ccccc2)C(=O)N(C(C)(C)c2nc3c(Cl)cccc3s2)C1, the MED (Echinochloa oryzicola [1]) is reported as 1.25 g/acre, the MED (Echinochloa oryzicola [2]) is reported as 5 g/acre and the MTD (Oryza sativa [3]) is reported as over 5 g/acre. It also gave an MED [4] of 80 g/acre, an MTD (Oryza sativa [5]) of 10 g/acre and an MED (Sagittaria pygmaea) of 80 g/acre.
CC(C)(c1nc2ccccc2s1)N1CC(C(F)(F)F)=C(c2ccccc2)C1=O showed an MED (Echinochloa oryzicola [1]) of 1.25 g/acre, an MED (Echinochloa oryzicola [2]) of under 5 g/acre and an MTD (Oryza sativa [3]) of 5 g/acre. It also gave an MED [4] of 80 g/acre, an MTD (Oryza sativa [5]) of 10 g/acre and an MED (Sagittaria pygmaea) of 40 g/acre.
CC1=C(c2ccccc2Br)C(=O)N(C(C)(C)c2nc3ccccc3s2)C1 gave an MED (Echinochloa oryzicola [1]) of 2.5 g/acre, an MED (Echinochloa oryzicola [2]) of under 5 g/acre and an MTD (Oryza sativa [3]) of over 5 g/acre. The MED [4] was 20 g/acre, the MTD (Oryza sativa [5]) was 5 g/acre and the MED (Sagittaria pygmaea) was 40 g/acre.
For CC1=C(c2cccc([N+](=O)[O-])c2)C(=O)N(C(C)(C)c2nc3ccccc3s2)C1, the MED (Echinochloa oryzicola [1]) was 160 g/acre, the MED (Echinochloa oryzicola [2]) was under 5 g/acre and the MTD (Oryza sativa [3]) was 80 g/acre. It also gave an MED [4] of 160 g/acre, an MTD (Oryza sativa [5]) of 80 g/acre and an MED (Sagittaria pygmaea) of 160 g/acre.
With CC1=C(c2ccccc2)C(=O)N(C(C)(C)c2csc3ccccc23)C1 the MED (Echinochloa oryzicola [1]) was 2.5 g/acre, the MED (Echinochloa oryzicola [2]) was under 5 g/acre and the MTD (Oryza sativa [3]) was 2.5 g/acre. The MED [4] was 80 g/acre, the MTD (Oryza sativa [5]) was 10 g/acre and the MED (Sagittaria pygmaea) was 80 g/acre.
COc1ccc2nc(C(C)(C)N3CC(C)=C(c4ccccc4)C3=O)sc2c1 was tested, and the MED (Echinochloa oryzicola [1]) was 0.313 g/acre, the MED (Echinochloa oryzicola [2]) was 2.5 g/acre and the MTD (Oryza sativa [3]) was over 5 g/acre. It also gave an MED [4] of 20 g/acre, an MTD (Oryza sativa [5]) of 10 g/acre and an MED (Sagittaria pygmaea) of 40 g/acre.
CC1=C(c2ccccc2)C(=O)N(C(C)(C)c2nc3cc(C#N)ccc3s2)C1 was tested, and the MED (Echinochloa oryzicola [1]) was 5 g/acre, the MED (Echinochloa oryzicola [2]) was under 5 g/acre and the MTD (Oryza sativa [3]) was 40 g/acre. It also gave an MED [4] of 20 g/acre, an MTD (Oryza sativa [5]) of 10 g/acre and an MED (Sagittaria pygmaea) of 40 g/acre.
With CC1=C(c2ccccc2)C(=O)N(C(C)(C)c2ccc(Cl)s2)C1 the MED (Echinochloa oryzicola [1]) was 0.625 g/acre, the MED (Echinochloa oryzicola [2]) was 10 g/acre and the MTD (Oryza sativa [3]) was 10 g/acre. The MED [4] was 10 g/acre, the MTD (Oryza sativa [5]) was 20 g/acre and the MED (Sagittaria pygmaea) was 80 g/acre.
CC(=O)OC1=C(c2ccccc2)C(=O)N(C(C)(C)c2nc3ccccc3s2)C1 gave an MED (Echinochloa oryzicola [1]) of 80 g/acre, an MED (Echinochloa oryzicola [2]) of under 5 g/acre and an MTD (Oryza sativa [3]) of under 20 g/acre. It also gave an MED [4] of 80 g/acre, an MTD (Oryza sativa [5]) of under 20 g/acre and an MED (Sagittaria pygmaea) of 80 g/acre.
In the case of COc1cccc2sc(C(C)(C)N3CC(C)=C(c4ccccc4)C3=O)nc12, the MED (Echinochloa oryzicola [1]) is reported as 10 g/acre, the MED (Echinochloa oryzicola [2]) is reported as under 5 g/acre and the MTD (Oryza sativa [3]) is reported as 20 g/acre. The MED [4] was 80 g/acre, the MTD (Oryza sativa [5]) was 40 g/acre and the MED (Sagittaria pygmaea) was 80 g/acre.
CCC1=C(c2ccccc2)C(=O)N(C(C)(C)c2nc3ccccc3s2)C1 showed an MED (Echinochloa oryzicola [1]) of 0.313 g/acre, an MED (Echinochloa oryzicola [2]) of 5 g/acre and an MTD (Oryza sativa [3]) of 20 g/acre. It also gave an MED [4] of 10 g/acre, an MTD (Oryza sativa [5]) of 40 g/acre and an MED (Sagittaria pygmaea) of 80 g/acre.
Work on CC1=C(c2ccc(F)cc2)C(=O)N(C(C)(C)c2nc3ccccc3s2)C1 yielded an MED (Echinochloa oryzicola [1]) of 5 g/acre, an MED (Echinochloa oryzicola [2]) of 5 g/acre and an MTD (Oryza sativa [3]) of over 5 g/acre. It also gave an MED [4] of 20 g/acre, an MTD (Oryza sativa [5]) of 20 g/acre and an MED (Sagittaria pygmaea) of 20 g/acre.
CC1=C(c2ccccc2Cl)C(=O)N(C(C)(C)c2nc3ccccc3s2)C1 showed an MED (Echinochloa oryzicola [1]) of 2.5 g/acre, an MED (Echinochloa oryzicola [2]) of 2.5 g/acre and an MTD (Oryza sativa [3]) of 1.25 g/acre. The MED [4] was 10 g/acre, the MTD (Oryza sativa [5]) was 2.5 g/acre and the MED (Sagittaria pygmaea) was 10 g/acre.
Compound CC1=C(c2ccccc2)C(=O)N(C(C)(C)c2nc3cc(C)ccc3s2)C1 has an MED (Echinochloa oryzicola [1]) of 10 g/acre, an MED (Echinochloa oryzicola [2]) of under 5 g/acre and an MTD (Oryza sativa [3]) of 2.5 g/acre. It also gave an MED [4] of 20 g/acre, an MTD (Oryza sativa [5]) of 40 g/acre and an MED (Sagittaria pygmaea) of 10 g/acre.
Compound CC1=C(c2ccccc2C(=O)O)C(=O)N(C(C)(C)c2nc3ccccc3s2)C1 has an MED (Echinochloa oryzicola [1]) of 160 g/acre, an MED (Echinochloa oryzicola [2]) of under 5 g/acre and an MTD (Oryza sativa [3]) of 40 g/acre. The MED [4] was 160 g/acre, the MTD (Oryza sativa [5]) was 20 g/acre and the MED (Sagittaria pygmaea) was 160 g/acre.
CC1=C(c2cccc(Cl)c2)C(=O)N(C(C)(C)c2nc3ccccc3s2)C1 was tested, and the MED (Echinochloa oryzicola [1]) was 10 g/acre, the MED (Echinochloa oryzicola [2]) was under 5 g/acre and the MTD (Oryza sativa [3]) was 5 g/acre. For the same compound, the MED [4] was 40 g/acre, the MTD (Oryza sativa [5]) was 10 g/acre and the MED (Sagittaria pygmaea) was 80 g/acre.
For CC1=C(c2ccccc2)C(=O)N(C(C)(C)c2nc3cc(F)ccc3s2)C1, the MED (Echinochloa oryzicola [1]) was 1.25 g/acre, the MED (Echinochloa oryzicola [2]) was 5 g/acre and the MTD (Oryza sativa [3]) was 1.25 g/acre. For the same compound, the MED [4] was 40 g/acre, the MTD (Oryza sativa [5]) was 10 g/acre and the MED (Sagittaria pygmaea) was 20 g/acre.
Work on CC1=C(c2ccccc2F)C(=O)N(C(C)(C)c2nc3ccccc3s2)C1 yielded an MED (Echinochloa oryzicola [1]) of 0.156 g/acre, an MED (Echinochloa oryzicola [2]) of 2.5 g/acre and an MTD (Oryza sativa [3]) of 5 g/acre. The MED [4] was 10 g/acre, the MTD (Oryza sativa [5]) was 10 g/acre and the MED (Sagittaria pygmaea) was 20 g/acre.
COc1ccc(OC)c(C2=C(C)CN(C(C)(C)c3nc4ccccc4s3)C2=O)c1 was tested, and the MED (Echinochloa oryzicola [1]) was 80 g/acre, the MED (Echinochloa oryzicola [2]) was under 5 g/acre and the MTD (Oryza sativa [3]) was 10 g/acre. It also gave an MED [4] of 160 g/acre, an MTD (Oryza sativa [5]) of 20 g/acre and an MED (Sagittaria pygmaea) of 160 g/acre.
CC1=C(c2ccccc2)C(=O)N(C(C)(C)c2nc3ccccc3o2)C1 gave an MED (Echinochloa oryzicola [1]) of 0.625 g/acre, an MED (Echinochloa oryzicola [2]) of 5 g/acre and an MTD (Oryza sativa [3]) of 5 g/acre. It also gave an MED [4] of 2.5 g/acre, an MTD (Oryza sativa [5]) of 20 g/acre and an MED (Sagittaria pygmaea) of 10 g/acre.
For CC1=C(c2ccccc2)C(=O)N(C(C)(C)c2nc3ccc(I)cc3s2)C1, the MED (Echinochloa oryzicola [1]) was 5 g/acre, the MED (Echinochloa oryzicola [2]) was under 5 g/acre and the MTD (Oryza sativa [3]) was 20 g/acre. The MED [4] was 20 g/acre, the MTD (Oryza sativa [5]) was 10 g/acre and the MED (Sagittaria pygmaea) was 20 g/acre.
